# Measured values taken from patent US8586034B2, “Cytomegalovirus disintegrin-like peptides” (priority 2004, dated 2013).
# Key:
# HCMV AD 169 = test: Virus binding assay (HCMV attachment, gB ELISA); format: cell-based, Human cytomegalovirus; details: NHDF, 4° C.; 1 mM gB disintegrin-like peptide, 1:50 DE9, α2 and α6 integrin antibodies 20 μg/mL
# Protocol: NHDF cells were grown in 96-well plates and treated with integrin-neutralizing antibodies, peptides, or heparin for 60 minutes at 4° C. Cells were then challenged with HCMV AD 169 at a multiplicity of infection (MOI) of 5 pfu/cell for 60 minutes at 4° C. Unbound virus was removed and cells were washed and fixed with 3% paraformaldehyde. Bound HCMV was detected with monoclonal antibody 27-78, horseradish peroxidase (HRP)-conjugated goat anti-mouse secondary antibody, and ImmunoPure TMB Substrate Kit (Pierce, Rockford, Ill.). Absorbance was measured at 450 nm. All experiments were performed in triplicate.
# During virus infection, integrins are utilized as primary viral attachment receptors or as post-attachment (fusion-activating) or internalization receptors.^11 To determine at which step in the HCMV entry pathway integrins are functioning, cell binding (i.e., attachment) experiments were performed, as well as assays to measure viral payload delivery into the cytoplasm (internalization). For the binding assays, virus was bound at 4° C. to allow for stable virus binding, but to restrict fusion and internalization. The results are depicted in FIG. 6A. […] Attachment was measured by gB ELISA.
# diI-labeled HCMV = format: cell-based, Human cytomegalovirus; details: gBDLD or BSA 320 μg/mL, soluble heparin 50 μg/mL; 24 hours post-infection
# HCMV strain AD169 = test: Virus entry assay, HCMV infectivity by IE gene expression; format: cell-based, Human cytomegalovirus; details: NHDFs treated prior to HCMV challenge
# Protocol: (§1) For CMV entry assays, subconfluent cells were grown on glass coverslips in 12-well plates. Integrin neutralizing antibodies or peptides were incubated in serum-free DMEM with cell monolayer for 30 minutes at 37° C. Cells were washed with phosphate-buffered saline (PBS) and incubated with HCMV strain AD169, MCMV Smith strain, or MCMV-GFP for 60 minutes at 37° C. Any non-penetrated virus was inactivated with low-pH citrate buffer (40 mM citric acid, 10 mM KCl, 135 mM NaCl, pH 3.0). The cells were incubated 20-24 hours at 37° C. in DMEM supplemented with 2% bovine calf serum (BCS). […] Experiments were performed in triplicate with a minimum of 1000 cells scored per coverslip. […] Cells were incubated 6 hours at 37° C. in DMEM supplemented with 10% BCS prior to lysis (100 mM sodium phosphate, 10 mM KCl, 1 mM magnesium sulfate, 0.1% NP-40, pH 7.4). β-galactosidase activity was measured by addition of o-nitrophenyl-β-D-galactopyranoside (ONPG) and the absorbance was monitored at 420 nm.
# FIG. 2A presents the results of a series of assays wherein NHDFs were treated with HCMV gB disintegrin-like peptide, gB disintegrin-like Null peptide, RGD, or RGE peptide prior to HCMV challenge (as indicated in the FIG. 2A). Infectivity was determined by IE gene expression. […]
# HCMV = test: Viral payload delivery, pp65 localization; format: cell-based, Human cytomegalovirus; details: human fibroblasts treated, then infected with HCMV
# Protocol: as §1
# Next, an assay was performed that directly measured delivery of an internal virion component. […] FIG. 6B is a histogram showing the results of a series of assays wherein human fibroblasts were treated with various integrin-blocking agents, infected with HCMV, and then assayed for viral payload as measured by pp65 localization. […]
# MCMV Smith strain = test: Virus entry assay, MCMV infectivity by e1-positive cells; format: cell-based, Murine cytomegalovirus; details: mouse fibroblasts (murine 3T3) treated with peptide
# Protocol: as §1, with “nm. […]” for “nm.”
# FIG. 4B is a histogram showing the results of an assay wherein GD25, GD25β1 and 3T3 cells were treated with β1, β3, and β1+β3 antibodies, followed by MCMV infection. As described above, infectivity was determined by scoring e1-(early protein) positive cells. […]
# HSV-1(KOS)gL86 = test: HSV entry assay (β-galactosidase activity); format: cell-based, herpes simplex virus-1; details: NHDF cells treated with peptide
# Protocol: For CMV entry assays, subconfluent cells were grown on glass coverslips in 12-well plates. Integrin neutralizing antibodies or peptides were incubated in serum-free DMEM with cell monolayer for 30 minutes at 37° C. Cells were washed with phosphate-buffered saline (PBS) and incubated with HCMV strain AD169, MCMV Smith strain, or MCMV-GFP for 60 minutes at 37° C. Any non-penetrated virus was inactivated with low-pH citrate buffer (40 mM citric acid, 10 mM KCl, 135 mM NaCl, pH 3.0). The cells were incubated 20-24 hours at 37° C. in DMEM supplemented with 2% bovine calf serum (BCS). Immunofluorescence analysis was performed as previously described^28 with either mouse anti-IE monoclonal antibody 1203, mouse anti-pp65 monoclonal antibody or rabbit anti-MCMV e1 polyclonal, followed by detection with a fluorescein-conjugated goat anti-mouse secondary or a fluorescein-conjugated goat anti-rabbit secondary antibody. Nuclei were stained with 300 nM 4′,6-diamidino-2-phenylindole (DAPI). Experiments were performed in triplicate with a minimum of 1000 cells scored per coverslip. […] Cells were incubated 6 hours at 37° C. in DMEM supplemented with 10% BCS prior to lysis (100 mM sodium phosphate, 10 mM KCl, 1 mM magnesium sulfate, 0.1% NP-40, pH 7.4). β-galactosidase activity was measured by addition of o-nitrophenyl-β-D-galactopyranoside (ONPG) and the absorbance was monitored at 420 nm. […]
Substance,HCMV attachment (gB ELISA) (HCMV AD 169),HCMV fusion (dye transfer) and gene expression (diI-labeled HCMV),HCMV infectivity (IE gene expression) (HCMV strain AD169),uptake of pp65 tegument protein (HCMV),MCMV infectivity (MCMV Smith strain),ability of HSV-1 to infect cells (HSV-1(KOS)gL86)
"heparin [soluble heparin, reference compound]",prevented virus attachment,blocks HCMV attachment,,,,
"AVCSMAGGTAAIRAERNIIC (listed as Human cytomegalovirus) [gB disintegrin-like null peptide, null peptide with alanine substitutions in the disintegrin-like consensus residues, reference compound]",,,able to infect,not,,
"RVCSMAQGTDLIRFERNIIC (listed as Human cytomegalovirus) [gB disintegrin-like peptide, synthetic 20 amino acid peptide encompassing the HCMV gB disintegrin-like domain]",no effect,,dose-dependent inhibitory response,little uptake,dramatic reduction in MCMV infectivity,no effect
